{"source": "patent US20080076824A1", "about": "“Compounds That Inhibit Replication Of Human Immunodeficiency Virus” (priority 2004, published 2008)", "key": {"[1]": {"test_system": "Coxsackie virus B4", "assay": "Antiviral activity in HeLa cell cultures, Coxsackie virus B4", "type": "cell-based", "method": "(§1) The cytotoxicity and antiviral activity of various concentrations of G-NH2 and GPG-NH2 were evaluated in cell cultures that were infected with various types of viruses. Conventional host cell culture, viral infection, and infectivity analysis for each different type of cell and virus were followed. Compounds that were known to inhibit replication of the particular types of viruses analyzed were used as controls."}, "[2]": {"test_system": "Coxsackie virus B4", "assay": "Antiviral activity in Vero cell cultures, Coxsackie virus B4", "type": "cell-based", "method": "as §1"}, "[3]": {"test_system": "Parainfluenza-3 virus", "assay": "organism not typed", "details": "Vero, read-out: Minimum inhibitory concentration Parainfluenza-3 virus"}, "[4]": {"test_system": "Reovirus-1", "assay": "organism not typed", "details": "Vero, read-out: Minimum inhibitory concentration Reovirus-1"}, "[5]": {"test_system": "Herpes simplex virus-1 (KOS)", "assay": "microbe, parasite or virus in culture", "details": "Human alphaherpesvirus 1, HEL, read-out: Minimum inhibitory concentration Herpes simplex virus-1 (KOS)"}, "[6]": {"test_system": "Herpes simplex virus-2 (G)", "assay": "microbe, parasite or virus in culture", "details": "Human alphaherpesvirus 2, HEL, read-out: Minimum inhibitory concentration Herpes simplex virus-2 (G)"}, "[7]": {"test_system": "Vaccinia virus", "assay": "microbe, parasite or virus in culture", "details": "Orthopoxvirus vaccinia, HEL, read-out: Minimum inhibitory concentration Vaccinia virus"}, "[8]": {"test_system": "Vesicular stomatitis virus", "assay": "microbe, parasite or virus in culture", "details": "HEL, read-out: Minimum inhibitory concentration Vesicular stomatitis virus"}, "[9]": {"test_system": "Herpes simplex virus-1 TK^− KOS ACV^r", "assay": "microbe, parasite or virus in culture", "details": "Human alphaherpesvirus 1, HEL, read-out: Minimum inhibitory concentration Herpes simplex virus-1 TK^− KOS ACV^r"}, "[10]": {"test_system": "Vesicular stomatitis virus", "assay": "microbe, parasite or virus in culture", "details": "HeLa, read-out: Minimum inhibitory concentration Vesicular stomatitis virus"}, "[11]": {"test_system": "Respiratory syncytial virus", "assay": "microbe, parasite or virus in culture", "details": "human respiratory syncytial virus, HeLa, read-out: Minimum inhibitory concentration Respiratory syncytial virus"}, "[12]": {"test_system": "Sindbis virus", "assay": "microbe, parasite or virus in culture", "details": "Vero, read-out: Minimum inhibitory concentration Sindbis virus"}, "[13]": {"test_system": "Punta Toro virus", "assay": "microbe, parasite or virus in culture", "details": "Vero, read-out: Minimum inhibitory concentration Punta Toro virus"}, "[14]": {"test_system": "HEL cell cultures", "assay": "Cytotoxicity in HEL cell cultures (cell morphology)", "details": "alteration of normal cell morphology"}, "[15]": {"test_system": "HeLa cell cultures", "assay": "Cytotoxicity in HeLa cell cultures (cell morphology)", "details": "alteration of normal cell morphology"}, "[16]": {"test_system": "Vero cell cultures", "assay": "Cytotoxicity in Vero cell cultures (cell morphology)", "details": "alteration of normal cell morphology"}, "[17]": {"target": "T1, dipeptidylpeptidase activity associated with BS (Bos taurus, UniProt P81425)", "T1 construct": "from tissue; host or cells: fetal bovine serum", "T1 sequence (P81425 38-765 limits assumed)": "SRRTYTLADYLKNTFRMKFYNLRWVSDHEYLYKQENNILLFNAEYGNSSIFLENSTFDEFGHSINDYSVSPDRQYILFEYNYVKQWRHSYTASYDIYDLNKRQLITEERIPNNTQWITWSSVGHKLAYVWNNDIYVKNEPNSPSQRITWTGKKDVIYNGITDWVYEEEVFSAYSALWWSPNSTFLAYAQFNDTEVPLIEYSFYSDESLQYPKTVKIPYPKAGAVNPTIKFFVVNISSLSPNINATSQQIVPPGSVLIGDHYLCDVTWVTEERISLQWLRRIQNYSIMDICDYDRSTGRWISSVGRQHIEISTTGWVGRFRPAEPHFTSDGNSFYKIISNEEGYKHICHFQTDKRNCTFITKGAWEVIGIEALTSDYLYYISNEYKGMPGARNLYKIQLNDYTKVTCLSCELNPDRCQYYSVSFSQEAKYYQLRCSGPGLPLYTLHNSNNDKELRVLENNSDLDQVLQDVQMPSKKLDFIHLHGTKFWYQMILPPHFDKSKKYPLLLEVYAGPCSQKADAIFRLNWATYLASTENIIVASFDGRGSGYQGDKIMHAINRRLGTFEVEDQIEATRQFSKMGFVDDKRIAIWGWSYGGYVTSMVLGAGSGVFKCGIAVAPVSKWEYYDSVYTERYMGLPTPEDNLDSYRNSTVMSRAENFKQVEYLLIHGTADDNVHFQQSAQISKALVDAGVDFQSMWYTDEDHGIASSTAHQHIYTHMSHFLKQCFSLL", "assay": "Inhibition of dipeptidylpeptidase activity of fetal bovine serum (substrate GP-pNA)", "type": "biochemical", "details": "read-out: 50% inhibitory concentration (IC50)"}, "[18]": {"test_system": "HIV-2 (ROD)", "assay": "microbe, parasite or virus in culture", "type": "cell-based", "details": "2 (ROD)", "method": "Human T-lymphocytic CEM cells (4.5×10^5 cells per ml) were suspended in fresh cell culture medium and infected with HIV-1 (IIIB and NL4.3) or HIV-2 (ROD or EHO) at 100 CCID50 (1 CCID50 being the virus dose infective for 50% of the cell cultures) per ml of cell suspension. Then, 100 μl of the infected cell suspension were transferred to microplate wells, mixed with 100 μl of appropriate (freshly prepared) dilutions of the test compounds (i.e., at final concentrations of […]), and were further incubated at 37° C. After 4 to 5 days, giant cell formation was recorded microscopically in the CEM cell cultures. […] (See Table 1).\nMT-4, C8166 or CEM cells (4 to 5×10^5 cells per ml) were suspended in fresh culture medium (RPMI-1640 medium supplemented with 10% fetal bovine serum (FBS) (BioWittaker Europe, Verviers, Belgium), 2 mM L-glutamine and […] NaHCO3). Subsequently, the cells were infected with HIV-1 (IIIB) or HIV-2(ROD) at ˜100 CCID50 (1 CCID50 being the dose infective for 50% of the cell cultures) per ml of cell suspension. Then, 100 μl of the infected cell suspension were transferred to 96-well microplate wells, mixed with 100 μl of the appropriate (5-fold) dilutions of the test compounds and further incubated at 37° C. After 4 to 5 days, giant cell formation was recorded microscopically in the CEM and C8166 cell cultures. The MT-4 cell cultures were treated with trypan blue and the number of viable cells was determined."}, "[19]": {"test_system": "HIV-2 (EHO)", "method": "Human T-lymphocytic CEM cells (4.5×10^5 cells per ml) were suspended in fresh cell culture medium and infected with HIV-1 (IIIB and NL4.3) or HIV-2 (ROD or EHO) at 100 CCID50 (1 CCID50 being the virus dose infective for 50% of the cell cultures) per ml of cell suspension. Then, 100 μl of the infected cell suspension were transferred to microplate wells, mixed with 100 μl of appropriate (freshly prepared) dilutions of the test compounds (i.e., at final concentrations of […]), and were further incubated at 37° C. After 4 to 5 days, giant cell formation was recorded microscopically in the CEM cell cultures."}, "[20]": {"target": "T2, CD26/dipeptidylpeptidase IV (Homo sapiens, UniProt P27487)", "T2 construct": "made in house; by own knowledge a natural human source (seminal plasma), not recombinant", "T2 sequence (P27487 whole entry)": "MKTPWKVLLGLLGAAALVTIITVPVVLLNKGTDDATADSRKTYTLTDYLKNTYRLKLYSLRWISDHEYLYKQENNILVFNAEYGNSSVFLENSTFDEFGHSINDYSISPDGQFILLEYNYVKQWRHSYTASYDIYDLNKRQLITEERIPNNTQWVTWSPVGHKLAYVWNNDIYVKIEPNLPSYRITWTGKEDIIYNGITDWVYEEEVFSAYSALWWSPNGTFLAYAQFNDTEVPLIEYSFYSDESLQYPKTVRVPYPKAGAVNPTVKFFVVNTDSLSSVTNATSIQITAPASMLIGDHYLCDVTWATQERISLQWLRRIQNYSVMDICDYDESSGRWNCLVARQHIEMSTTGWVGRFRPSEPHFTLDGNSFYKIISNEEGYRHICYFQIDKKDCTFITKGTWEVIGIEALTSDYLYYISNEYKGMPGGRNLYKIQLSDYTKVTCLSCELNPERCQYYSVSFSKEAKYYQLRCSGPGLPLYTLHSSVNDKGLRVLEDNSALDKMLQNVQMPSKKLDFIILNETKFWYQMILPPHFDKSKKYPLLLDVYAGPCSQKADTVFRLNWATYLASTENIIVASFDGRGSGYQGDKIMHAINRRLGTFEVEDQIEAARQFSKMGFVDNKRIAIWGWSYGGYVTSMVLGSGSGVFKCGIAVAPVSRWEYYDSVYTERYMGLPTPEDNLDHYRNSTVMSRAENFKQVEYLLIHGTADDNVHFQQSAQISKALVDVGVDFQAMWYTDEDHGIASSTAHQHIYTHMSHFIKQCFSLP", "assay": "Conversion of GPG-NH2 to GP-OH and G-NH2 by purified CD26", "type": "biochemical", "method": "In some experiments, approximately, 100 μM GPG-NH2 was exposed to 25 units/l of purified CD26 and the mixture was incubated for up to 400 minutes at room temperature. The lymphocyte surface glycoprotein CD26/dipeptidylpeptidase IV was purified as described before. (See De Meester, J. Immunol. Methods, 189:99-105 (1996), herein expressly incorporated by reference in its entirety). At different time points, an aliquot of the reaction mixture was withdrawn and analyzed on an electrospray ion trap mass spectrometer (Esquire, Bruker, Bremen, Germany). The appearance of the dipeptide GP-OH upon release from the amino terminal end of the GPG-NH2 molecule, as well as, the disappearance of intact GPG-NH2 from the reaction mixture was determined and monitored by electrospray ion trap mass spectometric analysis at different time points (See FIG. 3). Under these experimental conditions, CD26 released GP-OH in a time-dependent manner from GPG-NH2, and virtually completely converted GPG-NH2 to GP-OH and G-NH2 within 4 to 6 hrs of the reaction.\nNext, the conversion of radiolabeled [^14C]GPG-NH2 to [^14C]G-NH2 by purified CD26, fetal bovine serum (FBS), human serum (HS) and CEM cell suspensions was analyzed. […] A variety of these [^14C]GPG-NH2 concentrations were exposed to purified CD26, FBS, HS and CEM cell suspensions and the conversion to G-NH2 was analyzed. […]"}, "[21]": {"test_system": "HIV-1 (IIIB)", "details": "in words"}, "[22]": {"assay": "in vitro", "details": "human"}, "[23]": {"test_system": "HeLa cell cultures"}, "[24]": {"test_system": "Vesicular stomatitis virus", "details": "HeLa; reduces virus-induced cytopathogenicity by 50%"}, "[25]": {"test_system": "Respiratory syncytial virus", "details": "HeLa; reduces virus-induced cytopathogenicity by 50%"}, "[26]": {"test_system": "Vero cell cultures"}, "[27]": {"test_system": "Parainfluenza-3 virus", "details": "Vero; reduces virus-induced cytopathogenicity by 50%"}, "[28]": {"test_system": "Reovirus-1", "details": "Vero; reduces virus-induced cytopathogenicity by 50%"}, "[29]": {"test_system": "Sindbis virus", "details": "Vero; reduces virus-induced cytopathogenicity by 50%"}, "[30]": {"test_system": "Punta Toro virus", "details": "Vero; reduces virus-induced cytopathogenicity by 50%"}, "[31]": {"details": "Enterovirus B, B4, reduces virus-induced cytopathogenicity by 50%, read-out: Minimum inhibitory concentration Coxsackie virus B4"}, "[32]": {"details": "reduces virus-induced cytopathogenicity by 50%"}}, "note": "Where two headings read alike, the source gives them in different places. Non-standard residues stand in square brackets, D forms with d. Residues, ends and D or L forms follow the SMILES beside them. pGlu = O=C1CC[C@@H](C(=O)O)N1", "data": [{"smiles": "O=c1[nH]c(=O)n([C@H]2C[C@H](O)[C@@H](CO)O2)cc1/C=C/Br", "note": "[BVDU]", "values": [{"measurement": "EC50", "setting": "[1]; [31]", "value": "> 400", "unit": "µg/mL"}, {"measurement": "EC50", "setting": "[2]; [31]", "value": "> 400", "unit": "µg/mL"}, {"measurement": "EC50", "setting": "[3]", "value": "> 400", "unit": "µg/mL"}, {"measurement": "EC50", "setting": "[4]", "value": "> 400", "unit": "µg/mL"}, {"measurement": "EC50", "setting": "[5]", "value": 0.0256, "unit": "µg/mL"}, {"measurement": "EC50", "setting": "[6]", "value": "> 400", "unit": "µg/mL"}, {"measurement": "EC50", "setting": "[7]", "value": 0.64, "unit": "µg/mL"}, {"measurement": "EC50", "setting": "[8]", "value": 400, "unit": "µg/mL"}, {"measurement": "EC50", "setting": "[9]", "value": 400, "unit": "µg/mL"}, {"measurement": "EC50", "setting": "[10]", "value": "> 400", "unit": "µg/mL"}, {"measurement": "EC50", "setting": "[11]", "value": "> 400", "unit": "µg/mL"}, {"measurement": "EC50", "setting": "[12]", "value": "> 400", "unit": "µg/mL"}, {"measurement": "EC50", "setting": "[13]", "value": "> 400", "unit": "µg/mL"}, {"measurement": "Minimum cytotoxic concentration", "setting": "[14]", "value": ">400", "unit": "µg/mL"}, {"measurement": "Minimum cytotoxic concentration", "setting": "[15]", "value": "≧400 μg/ml"}, {"measurement": "Minimum cytotoxic concentration", "setting": "[16]", "value": ">400", "unit": "µg/mL"}]}, {"smiles": "CCC(C)C(N)C(=O)N1CCCC1", "note": "[IlePyr, L-isoleucinepyrrolidine]", "values": [{"measurement": "IC50", "setting": "[17]", "value": 99, "unit": "µM"}]}, {"smiles": "NC(=O)CNC(=O)[C@@H]1CCCN1C(=O)[C@@H]1CCC(=O)N1", "note": "[PyrQ-PG-NH2, cyclic pyrroglutaminylprolylglycinamide] ([pGlu]-Pro-Gly-NH2)", "values": [{"measurement": "EC50", "setting": "[18]", "value": "> 2000", "unit": "µM"}, {"measurement": "EC50", "setting": "[19]", "value": "> 2000", "unit": "µM"}, {"measurement": "release of G-NH2 by CD26", "setting": "[20]", "value": "unable to release G-NH2"}, {"measurement": "inhibition of HIV replication in cell culture", "setting": "[21]", "value": "ineffective"}, {"measurement": "EC50", "setting": "[22]", "value": "> 2000", "unit": "µM"}]}, {"smiles": "Nc1ncnc2c1ncn2C[C@H](O)CO", "note": "[(S)-DHPA, reference compound]", "values": [{"measurement": "Minimum inhibitory concentration Coxsackie virus B4", "setting": "[1]; [32]", "value": ">400", "unit": "µg/mL"}, {"measurement": "Minimum inhibitory concentration Coxsackie virus B4", "setting": "[2]; [32]", "value": ">400", "unit": "µg/mL"}, {"measurement": "Minimum cytotoxic concentration", "setting": "[23]", "value": ">400", "unit": "µg/mL"}, {"measurement": "Minimum inhibitory concentration Vesicular stomatitis virus", "setting": "[24]", "value": 240, "unit": "µg/mL"}, {"measurement": "Minimum inhibitory concentration Respiratory syncytial virus", "setting": "[25]", "value": ">400", "unit": "µg/mL"}, {"measurement": "Minimum cytotoxic concentration", "setting": "[26]", "value": ">400", "unit": "µg/mL"}, {"measurement": "Minimum inhibitory concentration Parainfluenza-3 virus", "setting": "[27]", "value": 240, "unit": "µg/mL"}, {"measurement": "Minimum inhibitory concentration Reovirus-1", "setting": "[28]", "value": 80, "unit": "µg/mL"}, {"measurement": "Minimum inhibitory concentration Sindbis virus", "setting": "[29]", "value": ">400", "unit": "µg/mL"}, {"measurement": "Minimum inhibitory concentration Punta Toro virus", "setting": "[30]", "value": ">400", "unit": "µg/mL"}]}]}
